Eight molecules from patent US10357036B2, “Compounds for controlling arthropods” (priority 2015, dated 2019) can be followed below.

Test [1] relates to Musca domestica. Kind of test: Musca domestica test. The format is in vivo. The conditions noted are these: 100 ppm; adult houseflies; after 2 days. As to the method:
(§1) • Solvent: dimethyl sulfoxide
To produce a suitable active ingredient formulation, 10 mg of active ingredient are mixed with 0.5 ml of dimethyl sulfoxide, and the concentrate is diluted with water to the desired concentration.
Vessels containing a sponge treated with sugar solution and the active ingredient formulation of the desired concentration are populated with 10 adult houseflies (Musca domestica).

Test [2] deals with Boophilus microplus. Kind of test: Boophilus microplus injection test. The format is in vivo. The note with it: 20 μg/animal; assessed after 7 days. As to the method: as §1
1 μl of the active ingredient solution is injected into the abdomen of 5 engorged adult female cattle ticks (Boophilus microplus). The animals are transferred into dishes and kept in a climate-controlled room.

In test [3] the test system is Spodoptera frugiperda. Kind of test: Spodoptera frugiperda spray test. The format is in vivo. The conditions noted are these: 100 g/ha; after 7 days.
In test [4] the test system is Rhipicephalus sanguineus. Briefly: Rhipicephalus sanguineus in vitro contact test with adult brown dog ticks. The format is in vivo. The conditions noted are these: after 48 h. In outline:
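Adult Rhipicephalus sanguineus (5-10 per tube) held in glass tubes coated with compound from acetone solution, 900 ppm giving 5 μg/cm^2, in the dark at room temperature. After 48 h ticks put on a 45-50° C hotplate up to 5 min; motionless or uncoordinated ticks scored dead/moribund as % efficacy.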

The subject of test [5] is cattle ticks (Boophilus microplus) Parkhurst strain, SP-resistant. Briefly: Boophilus microplus dip test. The format is in vivo. The note with it: 100 ppm; assessed after 7 days. As for the experimental part: • Test animals: cattle ticks (Boophilus microplus) Parkhurst strain, SP-resistant • Solvent: dimethyl sulfoxide
10 mg of active ingredient are dissolved in 0.5 ml of dimethyl sulfoxide. To produce a suitable formulation, the active ingredient solution is diluted with water to the concentration desired in each case.
This active ingredient formulation is pipetted into tubes. 8-10 engorged adult female cattle ticks (Boophilus microplus) are transferred into a further tube with holes. The tube is immersed into the active ingredient formulation, and all the ticks are completely wetted. After the liquid has run out, the ticks are transferred on filter discs into plastic dishes and stored in a climate-controlled room.
Efficacy is assessed after 7 days by laying of fertile eggs. Eggs which are not visibly fertile are stored in a climate-controlled cabinet until the larvae hatch after about 42 days. An efficacy of 100% means that none of the ticks has laid any fertile eggs; 0% means that all the eggs are fertile.

Test [6] has as its system Tetranychus urticae. Kind of test: Tetranychus urticae spray test, OP-resistant (bean leaf discs). The format is in vivo. The conditions noted are these: 100 g/ha; after 6 days. As to the method: (§2) After 6 days, the efficacy in % is determined.
Test [7] relates to Ctenocephalides felis. Kind of test: Ctenocephalides felis in vitro contact test with adult cat fleas. The format is in vivo. The conditions noted are these: application rate 5 μg/cm^2 (=500 g/ha); after 48 h; dead or moribund fleas. In outline: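 Glass tubes were coated with compound in acetone (900 ppm solution gives 5 μg/cm²), dried, then loaded with 5–10 adult cat fleas. Held horizontal at room temperature and ambient humidity for 48 h. Efficacy is the % of fleas dead or moribund (motionless or uncoordinated after knock-down).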

Test [8] relates to Ctenocephalides felis. Briefly: Ctenocephalides felis oral test. The format is in vivo. The conditions noted are these: 100 ppm in citrated cattle blood; after 2 days.
Test [9] relates to Phaedon cochleariae. Kind of test: Phaedon cochleariae spray test. The note with it: 100 g/ha; after 7 days.
In test [10] the test system is Myzus persicae. Briefly: Myzus persicae spray test (Chinese cabbage leaf discs). The format is in vivo. The conditions noted are these: 100 g/ha; after 6 days. As to the method: as §2
The mark [11] stands for this setting: application rate 5 μg/cm^2 (=500 g/ha), dead or moribund ticks.

In the case of `CC(=O)NCc1cc(-c2cnn(-c3c(C)cc(C(F)(C(F)(F)F)C(F)(F)F)cc3Cl)c2)ccc1C` [Ia-75], the “efficacy (rate of extermination)” value in test [1] and in test [8] was 100% each time. Also, the “efficacy (laying of fertile eggs)” value in test [2] and in test [5] was 100% throughout. The efficacy in test [3], in [4] (setting [11]), in test [6], in test [7] and in test [9] was 100% throughout.

As for `CCC(=O)NCc1cc(-c2cnn(-c3c(Cl)cc(C(F)(C(F)(F)F)C(F)(F)F)cc3C(F)(F)F)c2)ccc1F` [Ia-83], the “efficacy (rate of extermination)” value in test [1] and in test [8] was 100% throughout. Also, the figures for the “efficacy (laying of fertile eggs)” value in [2] and in test [5] were 100% and 80%, respectively. Also, the efficacy was 100% in test [3]; 100% in test [4] (setting [11]); 90% in test [6]; 100% in test [7]; 100% in test [9].

Take `CC(=O)NCc1cc(-c2cnn(-c3c(C)cc(C(F)(C(F)(F)F)C(F)(F)F)cc3Cl)c2)ccc1Cl` [Ia-84]: the “efficacy (rate of extermination)” value in [1] and in test [8] was 100% each time. Moreover, the “efficacy (laying of fertile eggs)” value in test [2] and in test [5] was 100% in each case. The efficacy in [3] stood at 100%; in [6], 100%; in [10], 90%; in [9], 100%.

Turning to `CC(=O)NCc1cc(-c2cnn(-c3c(Cl)cc(C(F)(C(F)(F)F)C(F)(F)F)cc3Br)c2)ccc1Cl` [Ia-91], the “efficacy (rate of extermination)” value in test [1] and in test [8] was 100% throughout. Also, the “efficacy (laying of fertile eggs)” value in test [2] is 100%; in test [5] it was 80%. In addition, the efficacy in [3], in test [6] and in [9] was 100% each time.

On to `CCC(=O)NCc1cc(-c2cnn(-c3c(C)cc(C(F)(C(F)(F)F)C(F)(F)F)cc3C)c2)ccc1Cl` [Ia-93], for which the “efficacy (rate of extermination)” value in test [1] and in [8] was 100% in each case. Besides, the “efficacy (laying of fertile eggs)” value is 100% in test [2] and 95% in [5]. Also, the efficacy in [3], in test [4] (setting [11]), in test [6], in test [7] and in [9] was 100% each time.

As to `CC(=O)NCc1cc(-c2cnn(-c3c(Cl)cc(C(F)(C(F)(F)F)C(F)(F)F)cc3C#N)c2)ccc1C` [Ia-96], the “efficacy (laying of fertile eggs)” value in [2] is 100%; in [5], 90%. The efficacy in test [3], in test [4] (application rate 1 μg/cm^2 (=100 g/ha)) and in [6] was 100% each time. Further, the “efficacy (rate of extermination)” value in [8] was 100%.

Regarding `CC(=O)NCc1cc(-c2cnn(-c3c(Cl)cc(C(F)(C(F)(F)F)C(F)(F)F)cc3C(F)F)c2)ccc1Cl` [Ia-106], the “efficacy (rate of extermination)” value in test [1] and in test [8] was 100% each time. In addition, the “efficacy (laying of fertile eggs)” value in test [2] and in test [5] was 100% in each case. Also, the efficacy in test [3], in test [6] and in [9] was 100% in each case.

Consider `CCC(=O)NCc1cc(-c2cnn(-c3c(Cl)cc(C(F)(C(F)(F)F)C(F)(F)F)cc3C(F)F)c2)ccc1Cl` [Ia-115], for which the “efficacy (rate of extermination)” value in test [1] and in [8] was 100% in each case. In addition, the “efficacy (laying of fertile eggs)” value in test [2] and in test [5] was 100% each time. Moreover, the efficacy in [3], in test [4] (setting [11]), in [6], in [7] and in test [9] was 100% each time.
